Measurements: patent publication US6316411A, “Protection against ischemia and reperfusion injury” (University of Kentucky Research Foundation, priority 2000, dated 2001)

Experiments:
[1] = tested on: mouse vas deferens; experiment: Mouse vas deferens (m.v.d.) contractility assay; settings: FIG. 8; 6000 nM glibenclamide with 1000 nM compound-D
Experimental: Glibenclamide, a KATP channel blocker, blocked the inhibition of contraction of mouse vas deferens induced by compound-D SEQ ID NO:1. With reference to FIG. 8, the effect of administration of 1000 nM compound-D SEQ ID NO:1 alone (open bar) versus 1000 nM compound-D SEQ ID NO:1 with 6000 nM glibenclamide (hatched bar) on contractility of mouse vas deferens (m.v.d.) (n=6) is shown. […] (n=2).

[2] = tested on: isolated rat hearts; experiment: Isolated perfused rat heart (Langendorff), 20 min global ischemia and 120 min reperfusion after 24 h pretreatment; format: in vivo; settings: FIG. 7, pretreated 24 h prior to ischemia, compound-D 2.0 mg/kg and/or naltrexone 3 mg/kg, 20 min ischemia, control about 27%
Experimental: Compound-D SEQ ID NO:1, at a dose of 2 mg/kg and solubilized as described above, was administered by tail vein injection into rats weighing between about 350-400 g (number of animals (n)=6). Control rats (n=6) were injected in the same manner with an equal volume of 0.9% NaCI. After 24 h, the hearts from both treated and control animals were excised and perfused in a modified Langendorff perfusion apparatus at 37° C. using oxygenated Krebs-Henseleit buffer as the perfusate, as known to one skilled in the art. Coronary perfusion pressure was maintained at 70 mm Hg by regulating coronary flow. All hearts were paced at […] (300 beats per minute, bpm) except during ischemia. A saline-filled balloon was inserted in the left ventricle to measure developed pressure (DP) and end-diastolic pressure (EDP) in mm Hg. After 15 min equilibration, both groups were subjected to 20 min zero-flow global ischemia, and then were reperfused for 120 min.
Left ventricles were isolated and divided into three segments along their short axis, stained with triphenyltetrazolium chloride, and stored in formalin. Infarct size was measured on digitized images and expressed as a per centage of myocardium. Data were expressed as mean plus or minus standard error of the mean (±SEM) and were analyze using a […] Student's t-Test. Confidence limits were established at 95%. […]

## COc1ccc(Cl)cc1C(=O)NCCc1ccc(S(=O)(=O)NC(=O)NC2CCCCC2)cc1 [Glibenclamide]
[1]
  effect of glibenclamide on compound-D suppressed m.v.d. contractions: restored m.v.d. contractions

## O=C1CC[C@@]2(O)[C@H]3Cc4ccc(O)c5c4[C@@]2(CCN3CC2CC2)[C@H]1O5 [naltrexone]
[2]
  infarct size: about 14.5%
